According to PMC11489133, “Obicetrapib exhibits favorable physiochemical and pharmacokinetic properties compared to previous cholesteryl ester transfer protein inhibitors: An integrated summary of results from non‐human primate studies and clinical trials” (Pharmacology Research & Perspectives, 2024):
Like-named read-outs stand apart in the source and are kept apart here.

Experiment: 39-week oral (gavage) toxicity/toxicokinetic study with 13-week treatment-free recovery period in cynomolgus monkeys
Assay type: in vivo, cynomolgus monkeys (Macaca fascicularis)
Details: for AUC(0–24) / Cmax / AUC(0-t): mean; for Rac AUC(0–24 h) (accumulation ratio) / Rac C max (accumulation ratio): Week 39 / Day 1; for concentration at 13 weeks after last dose / half-life / t max / Cmax / AUC(0-t): cynomolgus monkey; for concentration at 13 weeks after last dose: oral, after 13‐week treatment‐free period, all four recovery monkeys; for half-life / t max / Cmax / AUC(0-t): plasma, po; for AUC(0-t): read-out: AUC(0–24) (converted)
Experimental: CETP is present and active in non‐human primates, rabbits, and hamsters, but is absent in most other animal species, including mice, rats, and dogs.[2], [31], [32] A non‐human primate study was conducted using cynomolgus monkeys (Macaca fascicularis) to evaluate the toxicity of obicetrapib (TA‐8995), following twice daily (b.i.d.), six h apart, oral (gavage) administration to the monkey for 39 weeks (Clinical Study Report [CSR], NewAmsterdam Pharma). The monkey was selected as the species for this study because the CETP structure in monkeys is very similar to the structure of human CETP.[33] The cynomolgus monkeys were obtained from Noveprim Ltd, Mauritius. The monkeys were approximately 26–30 months old when obtained for the study and 28–32 months old at the start of dosing. On arrival at the study site, the weight range of the monkeys was 2.4–3.3 kg. Individual body weights were recorded once weekly (including Day 1 before the start of dosing) from time of allocation and on the day of necropsy. At the start of dosing, the weight range of the monkeys was 2.4–3.3 kg and 2.5–3.9 kg for the females and males, respectively. The weight range of the monkeys at the end of the dosing period (Week 39) was 3.0–4.8 kg and 3.0–5.2 kg for females and males, respectively.
The weight range of the recovery monkeys (n = 8) at Week 14 of the recovery period, prior to necropsy, was 3.5–5.2 kg and 3.7–4.9 kg for the females and males, respectively.
The animals were housed in pens that conform to the “Code of practice for the housing and care of animals used in scientific procedures” in rooms exclusive to the study. The rooms were air‐conditioned to provide 15–20 air changes/hour, and the temperature and relative humidity ranges were maintained at 21–25°C and 40–70%, respectively. Fluorescent lighting was controlled automatically to give a cycle of 12 h light and 12 h dark, with the exception of when experimental procedures dictated otherwise. A number of strategies were used for environmental enrichment for the monkeys, such as the provision of toys (e.g., balls, inert nylon chews), swings, and foraging materials. The monkeys were offered ad libitum water, 100 g of SQC Mazuri Primate Diet (Special Diets Services Ltd., Witham, UK), and a 25 g Bonio biscuit (Spillers) each day. When available, the diet was supplemented twice daily with fresh fruit, fresh vegetables, forage mix, peanuts, raisins, or sunflower seeds. The study was conducted in accordance with the requirements of the Animals (Scientific Procedures) Act 1986 and a local ethical review was maintained (CSR, NewAmsterdam Pharma).
The monkeys (n = 40; 20 of each sex) were allocated into four groups (based on existing social groupings) to receive treatment for 39 weeks: a control group (no treatment), a low‐dose group (10 mg/kg/day [5 mg/kg/b.i.d.] of obicetrapib), an intermediate‐dose group (20 mg/kg/day [10 mg/kg/b.i.d.] of obicetrapib), and a high‐dose group (50 mg/kg/day [25 mg/kg/b.i.d.] of obicetrapib). Four monkeys (two of each sex) from the 50 mg/kg/day dose group and four (two of each sex) from the control group were followed for an extended treatment‐free period of 13 weeks (recovery period). Obicetrapib was dosed as a suspension in 0.5% sodium carboxylmethyl cellulose solution and 0.1% polyoxyethylene hydrogenated castor oil. Toxicokinetic parameters were examined after 39 weeks of dosing. Blood samples for toxicokinetic evaluation were taken from all monkeys in the study on Day 1 and Day 273 (Week 39) pre‐dose and at 0.5, 1, 2, 3, 4, 6, 7.5, 9, 10, 12, and 24 h after dosing. Blood samples for toxicokinetic assessments were taken from the recovery animals on multiple days during the treatment‐free period at the same time intervals as the 24‐hour samples in Week 39. Delayed onset toxicity and/or reversibility of toxicity were examined during the 13‐week treatment‐free period. […]

[1] = female, 10 mg/kg/day, Day 1, 10 mg/kg/d, females
[2] = female, 20 mg/kg/day, Day 1, 20 mg/kg/d, females
[3] = female, 50 mg/kg/day, Day 1, 50 mg/kg/d, females
[4] = male, 10 mg/kg/day, Day 1, 10 mg/kg/d, males
[5] = male, 20 mg/kg/day, Day 1, 20 mg/kg/d, males
[6] = male, 50 mg/kg/day, Day 1, 50 mg/kg/d, males

SMILES: CCOC(=O)N1c2ccc(C(F)(F)F)cc2C(N(Cc2cc(C(F)(F)F)cc(C(F)(F)F)c2)c2ncc(OCCCC(=O)O)cn2)CC1CC (stereo not shown) [Obicetrapib]
- AUC(0–24) (Day 273 (Week 39), 10 mg/kg/d, females): 41 300 ngh/mL
- AUC(0–24) (Day 273 (Week 39), 10 mg/kg/d, males): 40 300 ngh/mL
- AUC(0–24) (Day 273 (Week 39), 20 mg/kg/d, females): 54 000 ngh/mL
- AUC(0–24) (Day 273 (Week 39), 20 mg/kg/d, males): 65 200 ngh/mL
- AUC(0–24) (Day 273 (Week 39), 50 mg/kg/d, females): 103 000 ngh/mL
- AUC(0–24) (Day 273 (Week 39), 50 mg/kg/d, males): 111 000 ngh/mL
- Rac AUC(0–24 h) (accumulation ratio) (10 mg/kg/d, females, mean (SD)): 1.4 (0.2)
- Rac C max (accumulation ratio) (10 mg/kg/d, females, mean (SD)): 1.0 (0.2)
- Rac AUC(0–24 h) (accumulation ratio) (10 mg/kg/d, males, mean (SD)): 1.4 (0.3)
- Rac C max (accumulation ratio) (10 mg/kg/d, males, mean (SD)): 1.4 (0.1)
- Rac AUC(0–24 h) (accumulation ratio) (20 mg/kg/d, females, mean (SD)): 1.1 (0.2)
- Rac C max (accumulation ratio) (20 mg/kg/d, females, mean (SD)): 1.1 (0.2)
- Rac AUC(0–24 h) (accumulation ratio) (20 mg/kg/d, males, mean (SD)): 1.4 (0.2)
- Rac C max (accumulation ratio) (20 mg/kg/d, males, mean (SD)): 1.4 (0.3)
- Rac AUC(0–24 h) (accumulation ratio) (50 mg/kg/d, females, mean (SD)): 0.9 (0.2)
- Rac C max (accumulation ratio) (50 mg/kg/d, females, mean (SD)): 0.8 (0.1)
- Rac AUC(0–24 h) (accumulation ratio) (50 mg/kg/d, males, mean (SD)): 1.0 (0.1)
- Rac C max (accumulation ratio) (50 mg/kg/d, males, mean (SD)): 1.0 (0.2)
- concentration at 13 weeks after last dose (both sexes, fat homogenate, 50 mg/kg/day, read-out: obicetrapib in fat homogenate (below LLOQ)): < 0.5 ng/mL
- concentration at 13 weeks after last dose (both sexes, 50 mg/kg/day, perirenal white fat, read-out: obicetrapib in adipose tissue (below LLOQ), per g of fat): < 10 ng/g
- half-life (both sexes, Day 1, read-out: Apparent t 1/2 for the individual monkeys): 4.8 to 10.5 h
- half-life (both sexes, Day 1, read-out: mean t 1/2, range over groups): 5.8 to 7.2 h
- half-life (both sexes, Day 273, read-out: mean t 1/2, range over groups): 6.4 to 12.1 h
- half-life (both sexes, Week 39, with one exception, read-out: Apparent t 1/2 for the individual monkeys): 5.3 to 18.3 h
- elimination of obicetrapib from plasma (end of 13‐week treatment‐free period, 50 mg/kg/day, both males and one female): complete
- obicetrapib detected in plasma, % of the observed maximum concentration (end of 13‐week treatment‐free period, 50 mg/kg/day, one recovery female): 0.25%
- time within which the mean C max was achieved (end of treatment, all of the monkeys, 3 h after the second dose): ≤ 9 h
- t max (female, 10 mg/kg/day, Day 1, 10 mg/kg/d, females, mean (SD)): 5.9 h
- half-life (female, 10 mg/kg/day, Day 1, 10 mg/kg/d, females, mean (SD), read-out: t ½ (elimination half‐life) (converted)): 7.2 h
- Cmax (female, 10 mg/kg/day, Day 273 (Week 39), 10 mg/kg/d, females): 3390 ng/mL
- t max (female, 10 mg/kg/day, Day 273 (Week 39), 10 mg/kg/d, females, mean (SD)): 4.8 h
- half-life (female, 10 mg/kg/day, Day 273 (Week 39), 10 mg/kg/d, females, mean (SD), read-out: t ½ (elimination half‐life) (converted)): 12.1 h
- Cmax [1]: 3300 ng/mL
- AUC(0-t) [1]: 29800 ng·h/mL
- t max (female, 20 mg/kg/day, Day 1, 20 mg/kg/d, females, mean (SD)): 4.8 h
- half-life (female, 20 mg/kg/day, Day 1, 20 mg/kg/d, females, mean (SD), read-out: t ½ (elimination half‐life) (converted)): 5.8 h
- Cmax (female, 20 mg/kg/day, Day 273 (Week 39), 20 mg/kg/d, females): 5160 ng/mL
- t max (female, 20 mg/kg/day, Day 273 (Week 39), 20 mg/kg/d, females, mean (SD)): 4.8 h
- half-life (female, 20 mg/kg/day, Day 273 (Week 39), 20 mg/kg/d, females, mean (SD), read-out: t ½ (elimination half‐life) (converted)): 8.8 h
- Cmax [2]: 4980 ng/mL
- AUC(0-t) [2]: 47800 ng·h/mL
- half-life (female, 50 mg/kg/day, 50 mg/kg/day group, female with detectable concentrations 13 weeks after the last dose, read-out: t ½ of one outlier female (converted)): 516 h
- t max (female, 50 mg/kg/day, Day 1, 50 mg/kg/d, females, mean (SD)): 6.2 h
- half-life (female, 50 mg/kg/day, Day 1, 50 mg/kg/d, females, mean (SD), read-out: t ½ (elimination half‐life) (converted)): 6.8 h
- Cmax (female, 50 mg/kg/day, Day 273 (Week 39), 50 mg/kg/d, females): 8480 ng/mL
- t max (female, 50 mg/kg/day, Day 273 (Week 39), 50 mg/kg/d, females, mean (SD)): 6.6 h
- half-life (female, 50 mg/kg/day, Day 273 (Week 39), 50 mg/kg/d, females, mean (SD), does not include data from one outlier, read-out: t ½ (elimination half‐life) (converted)): 7.4 h
- half-life (female, 50 mg/kg/day, females in the high dose group (50 mg/kg/day), Week 39, read-out: mean t 1/2 including the outlier (converted)): 109 h
- Cmax [3]: 11600 ng/mL
- AUC(0-t) [3]: 118000 ng·h/mL
- t max (male, 10 mg/kg/day, Day 1, 10 mg/kg/d, males, mean (SD)): 5 h
- half-life (male, 10 mg/kg/day, Day 1, 10 mg/kg/d, males, mean (SD), read-out: t ½ (elimination half‐life) (converted)): 6.8 h
- Cmax (male, 10 mg/kg/day, Day 273 (Week 39), 10 mg/kg/d, males): 3800 ng/mL
- t max (male, 10 mg/kg/day, Day 273 (Week 39), 10 mg/kg/d, males, mean (SD)): 2 h
- half-life (male, 10 mg/kg/day, Day 273 (Week 39), 10 mg/kg/d, males, mean (SD), read-out: t ½ (elimination half‐life) (converted)): 11 h
- Cmax [4]: 2800 ng/mL
- AUC(0-t) [4]: 29300 ng·h/mL
- t max (male, 20 mg/kg/day, Day 1, 20 mg/kg/d, males, mean (SD)): 2.5 h
- half-life (male, 20 mg/kg/day, Day 1, 20 mg/kg/d, males, mean (SD), read-out: t ½ (elimination half‐life) (converted)): 6.9 h
- Cmax (male, 20 mg/kg/day, Day 273 (Week 39), 20 mg/kg/d, males): 6410 ng/mL
- t max (male, 20 mg/kg/day, Day 273 (Week 39), 20 mg/kg/d, males, mean (SD)): 2.3 h
- half-life (male, 20 mg/kg/day, Day 273 (Week 39), 20 mg/kg/d, males, mean (SD), read-out: t ½ (elimination half‐life) (converted)): 8.1 h
- Cmax [5]: 4740 ng/mL
- AUC(0-t) [5]: 46600 ng·h/mL
- t max (male, 50 mg/kg/day, Day 1, 50 mg/kg/d, males, mean (SD)): 7.6 h
- half-life (male, 50 mg/kg/day, Day 1, 50 mg/kg/d, males, mean (SD), read-out: t ½ (elimination half‐life) (converted)): 6.8 h
- Cmax (male, 50 mg/kg/day, Day 273 (Week 39), 50 mg/kg/d, males): 9210 ng/mL
- t max (male, 50 mg/kg/day, Day 273 (Week 39), 50 mg/kg/d, males, mean (SD)): 8.5 h
- half-life (male, 50 mg/kg/day, Day 273 (Week 39), 50 mg/kg/d, males, mean (SD), read-out: t ½ (elimination half‐life) (converted)): 6.4 h
- Cmax [6]: 9600 ng/mL
- AUC(0-t) [6]: 118000 ng·h/mL
- mean body weights (recovery period, monkeys treated at 50 mg/kg/day (25 mg/kg/b.i.d.)): comparable with the control monkeys
- Group mean body weights (treated monkeys, dosing period): comparable with the control monkeys
